Laboratory results: ChEMBL document CHEMBL1155100, “Design and synthesis of novel 3-hydroxy-cyclobut-3-ene-1,2-dione derivatives as thyroid hormone receptor beta (TR-beta) selective ligands” (Bioorg Med Chem Lett, 2008)

Key:
[1] = target: T1, Thyroid hormone receptor alpha (Homo sapiens, UniProt P10827); test: Agonist activity at human thyroid hormone receptor alpha expressed in CV1 cells by TRE-luciferase assay; format: functional, cell-based, CV-1
T1 sequence (P10827 whole entry): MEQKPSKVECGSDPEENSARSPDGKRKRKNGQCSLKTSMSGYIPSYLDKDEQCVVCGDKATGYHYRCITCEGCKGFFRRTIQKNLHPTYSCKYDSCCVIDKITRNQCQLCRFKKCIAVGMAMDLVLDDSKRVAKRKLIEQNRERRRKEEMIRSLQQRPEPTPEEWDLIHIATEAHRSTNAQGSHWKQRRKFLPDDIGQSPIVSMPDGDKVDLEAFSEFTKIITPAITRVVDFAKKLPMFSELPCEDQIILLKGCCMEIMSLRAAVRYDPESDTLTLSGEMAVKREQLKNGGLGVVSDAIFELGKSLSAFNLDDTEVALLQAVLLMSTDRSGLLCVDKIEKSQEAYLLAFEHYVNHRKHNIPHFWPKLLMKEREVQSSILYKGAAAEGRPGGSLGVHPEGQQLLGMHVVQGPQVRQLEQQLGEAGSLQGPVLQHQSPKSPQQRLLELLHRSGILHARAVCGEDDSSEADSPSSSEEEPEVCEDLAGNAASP

[2] = target: T2, Thyroid hormone receptor beta (Homo sapiens, UniProt P10828)
T2 sequence (P10828 whole entry): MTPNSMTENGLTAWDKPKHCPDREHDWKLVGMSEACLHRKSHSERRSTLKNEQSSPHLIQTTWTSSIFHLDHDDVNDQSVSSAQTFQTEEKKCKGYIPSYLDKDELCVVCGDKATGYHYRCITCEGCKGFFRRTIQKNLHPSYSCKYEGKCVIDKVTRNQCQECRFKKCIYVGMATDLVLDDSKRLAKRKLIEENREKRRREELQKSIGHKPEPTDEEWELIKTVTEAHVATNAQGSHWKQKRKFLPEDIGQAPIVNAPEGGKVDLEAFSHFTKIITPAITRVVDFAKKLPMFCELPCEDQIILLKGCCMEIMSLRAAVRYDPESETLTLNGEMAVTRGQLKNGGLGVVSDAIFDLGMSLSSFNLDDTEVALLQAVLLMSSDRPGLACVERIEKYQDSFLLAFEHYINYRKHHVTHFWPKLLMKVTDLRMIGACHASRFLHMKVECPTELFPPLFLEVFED

SMILES	EC50 [1]	EC50 [2]
CC(C)c1cc(Oc2c(Cl)cc(Nc3c(O)c(=O)c3=O)cc2Cl)ccc1O	222 nM	70 nM
CC(C)(C)c1cc(Oc2c(Cl)cc(Nc3c(O)c(=O)c3=O)cc2Cl)ccc1O	1060 nM	317 nM
